Data on nine compounds can be found in patent publication US20250195536A1, “BICYCLOOCTANE KRAS INHIBITORS” (Incyte Corporation, priority 2023, published 2025).

The structures appear in SMILES notation.

For data set [1], the target named is KRAS G12V (Homo sapiens, UniProt P01116, G12V). Kind of data set: GDP-GTP exchange assay (KRAS G12V).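 Note: one dagger IC50 up to 100 nM and two daggers above 100 nM up to 1 μM.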 It counts as biochemical. As to conditions: bodipy-GDP/GppNHp exchange with SOS1; 3 h incubation after GppNHp-SOS1. A digest of the protocol: (§1)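 IC50 came from a four-parameter fit of fluorescence loss (485/520 nm) as SOS1 (150 nM) swapped bodipy-GDP for GppNHp (500 μM) on 2.5 nM KRAS, final concentrations. Compounds were pre-incubated 4 h at r.t. (pH 7.5 Hepes, 10 mM MgCl2); exchange ran 2 h (G12D) or 3 h (G12V).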
Chain of KRAS G12V (P01116 1-188 isoform P01116-2 G12V): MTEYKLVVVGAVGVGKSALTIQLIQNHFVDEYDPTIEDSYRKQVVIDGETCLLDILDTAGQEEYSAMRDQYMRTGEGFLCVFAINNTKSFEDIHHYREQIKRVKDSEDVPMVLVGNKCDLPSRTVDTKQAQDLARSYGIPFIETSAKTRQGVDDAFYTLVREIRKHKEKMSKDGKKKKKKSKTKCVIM

For data set [2], the target named is KRAS G12D (Homo sapiens, UniProt P01116, G12D). Kind of data set: GDP-GTP exchange assay (KRAS G12D).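 Note: one dagger IC50 up to 100 nM and two daggers above 100 nM up to 1 μM.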 Type of data set: biochemical. The settings on record: bodipy-GDP/GppNHp exchange with SOS1; 4 h pre-incubation, 2 h reaction. The gist of the method:
as §1

A short description of data set [3]: Caco2 assay (permeability, Papp A-B). Type of data set: in vitro ADME. The settings on record: human, Caco-2, absorptive direction (A-B), 50 μM test compound, 4% BSA in receiver. A digest of the protocol: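 Absorptive (A-B) Papp: 50 μM test compound in HBSS added to apical side of 22-25-day Caco-2 monolayers (TEER 300 Ω·cm^2), receiver buffer containing 4% BSA. After 120 min at 37 °C, 5% CO2, both sides analysed by LCMS; Papp calculated from flux rate normalized to area and donor amount.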
(In general: Caco-2 cells form a polarised layer with tight junctions and transporters.)

Chain of KRAS G12D (P01116 1-188 isoform P01116-2 G12D): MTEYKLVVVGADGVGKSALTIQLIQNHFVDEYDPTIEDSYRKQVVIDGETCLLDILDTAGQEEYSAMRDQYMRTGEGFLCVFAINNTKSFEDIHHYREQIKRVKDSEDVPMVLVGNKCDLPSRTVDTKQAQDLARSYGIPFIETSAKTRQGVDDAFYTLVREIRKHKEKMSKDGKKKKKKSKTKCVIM

What is called Papp A→B is the apparent permeability from the apical to the basolateral side of a cell layer. As to `Cc1nc2c(F)c(-c3cccc(Cl)c3Cl)c(CCC#N)cc2c2c1cc([C@H]1[C@H]3C[C@H](CN(c4nccc(C(F)F)n4)C3)N1C(=O)C1CC1)n2[C@H]1[C@H]2CN[C@@H]1C2` (atropisomer, axis not shown; (Ra)) [Example 87, 3-((Ra)-1-((1R,4R,5S)-2-azabicyclo[2.1.1]hexan-5-yl)-2-((1S,5R,7R)-6-(cyclopropanecarbonyl)-3-(4-(difluoromethyl)pyrimidin-2-yl)-3,6-diazabicyclo[3.2.1]octan-7-yl)-7-(2,3-dichlorophenyl)-6-fluoro-4-methyl-1H-pyrrolo[3,2-c]quinolin-8-yl)propanenitrile], the “G12V_exchange (KRAS_G12V exchange assay IC50)” value (“G12V_exchange” for short) in data set [1] is “†”. For the same compound, in data set [2], the “G12D_exchange (KRAS_G12D exchange assay IC50)” value (“G12D_exchange” below) is on record as “†”. In addition, the Papp A→B at 120 min, 50 μM in data set [3] was ≤ 5 nm/s.

Consider `Cc1nc2c(F)c(-c3cccc(Cl)c3Cl)c(CCC#N)cc2c2c1cc([C@H]1[C@H]3C[C@H](CN(c4cccc(C(F)F)n4)C3)N1C(=O)C1CC1)n2[C@H]1[C@H]2CN[C@@H]1C2` (atropisomer, axis not shown; (Ra)) [Example 88, 3-((Ra)-1-((1R,4R,5S)-2-azabicyclo[2.1.1]hexan-5-yl)-2-((1S,5R,7R)-6-(cyclopropanecarbonyl)-3-(6-(difluoromethyl)pyridin-2-yl)-3,6-diazabicyclo[3.2.1]octan-7-yl)-7-(2,3-dichlorophenyl)-6-fluoro-4-methyl-1H-pyrrolo[3,2-c]quinolin-8-yl)propanenitrile], for which the “G12V_exchange” value in data set [1] was “†”. Also, in data set [2], the “G12D_exchange” value is “†”. In addition, the Papp A→B at 120 min, 50 μM in data set [3] was ≤ 5 nm/s.

As to `Cc1nc2c(F)c(-c3cccc(Cl)c3Cl)c(CCC#N)cc2c2c1cc([C@H]1[C@H]3C[C@H](CN(c4cc(C(F)F)ccn4)C3)N1C(=O)C1CC1)n2[C@H]1[C@H]2CN[C@@H]1C2` (atropisomer, axis not shown; (Ra)) [Example 89, 3-((Ra)-1-((1R,4R,5S)-2-azabicyclo[2.1.1]hexan-5-yl)-2-((1S,5R,7R)-6-(cyclopropanecarbonyl)-3-(4-(difluoromethyl)pyridin-2-yl)-3,6-diazabicyclo[3.2.1]octan-7-yl)-7-(2,3-dichlorophenyl)-6-fluoro-4-methyl-1H-pyrrolo[3,2-c]quinolin-8-yl)propanenitrile], in data set [1], the “G12V_exchange” value was “†”. For the same compound, the “G12D_exchange” value in data set [2] is given as “†”. Besides, in data set [3], the apical-to-basolateral permeability (Papp A→B) at 120 min, 50 μM was ≤ 5 nm/s.

Take `Cc1csc(N2C[C@@H]3C[C@H](C2)N(C(=O)C2CC2)[C@H]3c2cc3c(C)nc4c(F)c(-c5cccc(Cl)c5Cl)c(CCC#N)cc4c3n2[C@H]2[C@H]3CN[C@@H]2C3)n1` (atropisomer, axis not shown; (Ra)) [Example 90, 3-((Ra)-1-((1R,4R,5S)-2-azabicyclo[2.1.1]hexan-5-yl)-2-((1S,5R,7R)-6-(cyclopropanecarbonyl)-3-(4-methylthiazol-2-yl)-3,6-diazabicyclo[3.2.1]octan-7-yl)-7-(2,3-dichlorophenyl)-6-fluoro-4-methyl-1H-pyrrolo[3,2-c]quinolin-8-yl)propanenitrile]: the “G12V_exchange” value in data set [1] is “†”. In addition, in data set [2], the “G12D_exchange” value is “†”. In addition, the apical-to-basolateral permeability (Papp A→B) at 120 min, 50 μM in data set [3] is ≤ 5 nm/s.

With `Cc1cnc(N2C[C@@H]3C[C@H](C2)N(C(=O)C2CC2)[C@H]3c2cc3c(C)nc4c(F)c(-c5cccc(Cl)c5Cl)c(CCC#N)cc4c3n2[C@H]2[C@H]3CN[C@@H]2C3)s1` (atropisomer, axis not shown; (Ra)) [Example 91, 3-((Ra)-1-((1R,4R,5S)-2-azabicyclo[2.1.1]hexan-5-yl)-2-((1S,5R,7R)-6-(cyclopropanecarbonyl)-3-(5-methylthiazol-2-yl)-3,6-diazabicyclo[3.2.1]octan-7-yl)-7-(2,3-dichlorophenyl)-6-fluoro-4-methyl-1H-pyrrolo[3,2-c]quinolin-8-yl)propanenitrile], the “G12V_exchange” value in data set [1] is listed as “†”. In data set [2], the “G12D_exchange” value is given as “†”. The Papp A→B at 120 min, 50 μM in data set [3] was ≤ 5 nm/s.

Consider `Cc1nc2c(F)c(-c3cccc(Cl)c3Cl)c(CCC#N)cc2c2c1cc([C@H]1[C@H]3C[C@H](CN(c4ncnn4C)C3)N1C(=O)C1CC1)n2[C@H]1[C@H]2CN[C@@H]1C2` (atropisomer, axis not shown; (Ra)) [Example 92, 3-((Ra)-1-((1R,4R,5S)-2-azabicyclo[2.1.1]hexan-5-yl)-2-((1S,5R,7R)-6-(cyclopropanecarbonyl)-3-(1-methyl-1H-1,2,4-triazol-5-yl)-3,6-diazabicyclo[3.2.1]octan-7-yl)-7-(2,3-dichlorophenyl)-6-fluoro-4-methyl-1H-pyrrolo[3,2-c]quinolin-8-yl)propanenitrile], for which, in data set [1], the “G12V_exchange” value was “†”. In data set [2], the “G12D_exchange” value is “†”. For the same compound, in data set [3], the Papp A→B at 120 min, 50 μM was ≤ 5 nm/s.

As for `Cc1nc2c(F)c(-c3cccc(Cl)c3Cl)c(CCC#N)cc2c2c1cc([C@H]1[C@H]3C[C@H](CN(c4cscn4)C3)N1C(=O)C1CC1)n2[C@H]1[C@H]2CN[C@@H]1C2` (atropisomer, axis not shown; (Ra)) [Example 93, 3-((Ra)-1-((1R,4R,5S)-2-azabicyclo[2.1.1]hexan-5-yl)-2-((1S,5R,7R)-6-(cyclopropanecarbonyl)-3-(thiazol-4-yl)-3,6-diazabicyclo[3.2.1]octan-7-yl)-7-(2,3-dichlorophenyl)-6-fluoro-4-methyl-1H-pyrrolo[3,2-c]quinolin-8-yl)propanenitrile], the “G12V_exchange” value in data set [1] is “†”. Also, the “G12D_exchange” value in data set [2] is “†”. Moreover, the Papp A→B at 120 min, 50 μM in data set [3] is ≤ 5 nm/s.

In the case of `Cc1nc2c(F)c(-c3cccc(Cl)c3Cl)c(CCC#N)cc2c2c1cc([C@H]1[C@H]3C[C@H](CN(c4nc(C(F)(F)F)cs4)C3)N1C(=O)C1CC1)n2[C@H]1[C@H]2CN[C@@H]1C2` (atropisomer, axis not shown; (Ra)) [Example 94, 3-((Ra)-1-((1R,4R,5S)-2-azabicyclo[2.1.1]hexan-5-yl)-2-((1S,5R,7R)-6-(cyclopropanecarbonyl)-3-(4-(trifluoromethyl)thiazol-2-yl)-3,6-diazabicyclo[3.2.1]octan-7-yl)-7-(2,3-dichlorophenyl)-6-fluoro-4-methyl-1H-pyrrolo[3,2-c]quinolin-8-yl)propanenitrile], in data set [1], the “G12V_exchange” value was “†”. In addition, the “G12D_exchange” value in data set [2] is given as “†”. The apparent permeability from apical to basolateral (Papp A→B) at 120 min, 50 μM in data set [3] is ≤ 5 nm/s.

Take `Cc1nc(N2C[C@@H]3C[C@H](C2)N(C(=O)C2CC2)[C@H]3c2cc3c(C)nc4c(F)c(-c5cccc(Cl)c5Cl)c(CCC#N)cc4c3n2[C@H]2[C@H]3CN[C@@H]2C3)sc1C` (atropisomer, axis not shown; (Ra)) [Example 95, 3-((Ra)-1-((1R,4R,5S)-2-azabicyclo[2.1.1]hexan-5-yl)-2-((1S,5R,7R)-6-(cyclopropanecarbonyl)-3-(4,5-dimethylthiazol-2-yl)-3,6-diazabicyclo[3.2.1]octan-7-yl)-7-(2,3-dichlorophenyl)-6-fluoro-4-methyl-1H-pyrrolo[3,2-c]quinolin-8-yl)propanenitrile]: the “G12V_exchange” value in data set [1] is on record as “†”. The “G12D_exchange” value in data set [2] is listed as “†”. For the same compound, the Papp A→B at 120 min, 50 μM in data set [3] is ≤ 5 nm/s.
